1 substance from US7445894B2, “Compositions and methods for detection and isolation of phosphorylated molecules” (priority 2002, dated 2008) can be followed below.

The target in experiment [1] is T1, lysozyme (Gallus gallus, UniProt P00698).
T1 construct: purchased Sigma Chemical Company L-7651
In words: Fluorescence polarization of Compound 2-Ga3+ with non-phosphorylated control protein. The format is binding. The settings on record: 1.0 μM Compound 2, 100 μM lysozyme plus 1 μM gallium chloride. The method, then: (§1) First, an assay was conducted with a (1) phosphoprotein (ovalbumin) and a (2) control non-phosphorylated protein (lysozyme). A modified binding solution containing 1.0 μM Compound 2 was incubated in 50 mM 2-(N-morpholino)ethanesulfonic acid (pH 3.0 to 3.5), 500 mM NaCl at room temperature in parallel to solutions containing, in addition, (a) 1 μM gallium chloride, (b) 100 μM lysozyme plus 1 μM gallium chloride, or (c) and 100 μM ovalbumin plus 1 μM gallium chloride. The fluorescence polarization of the resulting solutions was then measured in a fluorescence spectrophotometer with excitation at 530 nm and emission at 545 to 700 nm. The integrated polarized emission spectra yielded anisotropy “r values” of: r=0.10+/−0.003+/−0.02 (Compound 2 plus gallium); r=0.10+/−0.002 (Compound 2 plus lysozyme non-phosphorylated control); r=0.34+/−0.002 (Compound 2 plus gallium plus ovalbumin), indicating phosphorylation-dependent binding of the Compound 2 to this phosphoprotein (see FIG. 10A)
For orientation: Fluorescence polarisation rises when a labelled molecule tumbles more slowly, as on binding a larger partner.

Experiment [2] has as its target T2, ovalbumin (Gallus gallus, UniProt P01012).
T2 construct: purchased Sigma Chemical Company A-7641
T2 sequence (P01012 1-386): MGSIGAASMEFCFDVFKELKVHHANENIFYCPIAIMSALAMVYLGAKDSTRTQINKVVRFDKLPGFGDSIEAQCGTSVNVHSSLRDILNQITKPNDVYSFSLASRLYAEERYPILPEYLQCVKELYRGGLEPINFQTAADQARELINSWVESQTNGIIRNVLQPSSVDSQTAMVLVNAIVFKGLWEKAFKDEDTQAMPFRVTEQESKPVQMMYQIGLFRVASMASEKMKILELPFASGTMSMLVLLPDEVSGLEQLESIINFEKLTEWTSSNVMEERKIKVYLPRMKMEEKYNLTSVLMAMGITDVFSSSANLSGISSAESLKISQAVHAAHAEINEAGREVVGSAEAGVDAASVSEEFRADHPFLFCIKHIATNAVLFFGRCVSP
Put plainly: Fluorescence polarization of Compound 2-Ga3+ with phosphoprotein. The format is binding. The settings on record: 1.0 μM Compound 2, 100 μM ovalbumin plus 1 μM gallium chloride. The method, then:
as §1

For experiment [3], the target named is T3, pDSIP (Oryctolagus cuniculus, UniProt P01158).
T3 construct: purchased SynPep Corporation
In words: Total phosphopeptide detection on microarray with binding solution. Conditions: 1 μM Compound 2, 1 μM GaCl3, pH 4.0. The procedure:
(A) Three pairs of peptides, the phosphorylated and the non-phosporylated forms of Kemptide, pp60 c-src and DSIP, were arrayed on to HydroGel coated slides (Perkin Elmer) from a source plate (384-well) with a concentration of 0.95 μg/ml-0.5 mg/ml peptide in water, using the BioChip Arrayer™ (Perkin Elmer) as described in Example 20. For specific detection of the phosphopeptides on the array, the slides were incubated for 45 minutes on a rotisserie in a binding solution comprising 1 μM Compound 2, in buffer containing 0.5 M NaCl, 20% 1,2 propanediol, 1 μM GaCl3, and 0.05 M sodium acetate, pH 4.0. Slides were then washed three times for 15 minutes on a rotisserie in 0.05 M sodium acetate, pH 4.0, containing 4% acetonitrile followed by a 15 minute water wash. Slides were then spun briefly in a microarray high-speed centrifuge affixed with a rotor with a slide holder (Telechem) at ˜6000 rpm to remove excess liquid. After slides were dry, the arrays were imaged using the ScanArray® 5000 XL Microarray Analysis System (Packard Instrument Co., Meriden, Conn.) using the 543.5 nm laser and 570 nm emission filter. […] Using the 543.5 nm excitation and 570 nm emission filter, there was no signal detected. Using the 632.8 nm excitation and 670 nm emission filter, pp60 c-src (pY) was specifically detected to a sensitivity of 5.2 pg.

T1 sequence (P00698 19-147): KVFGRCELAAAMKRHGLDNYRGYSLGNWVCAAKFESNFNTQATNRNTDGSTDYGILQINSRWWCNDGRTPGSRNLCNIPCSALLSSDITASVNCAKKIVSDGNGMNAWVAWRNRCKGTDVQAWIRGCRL

As to Rhod-5F [Compound 2], the results for the anisotropy r value in experiment [1] and in experiment [2] were 0.10+/−0.002 and 0.34+/−0.002, respectively. For the same substance, the “amount specifically labeled on microarray” value in experiment [3] lay in the range of 1.3 to 2.6 pg.
